In the NIST ThermoML archive (doi:10.1021/acs.jced.5b00796):
Numbers after ± are expanded uncertainties.

Conditions: Liquid, Ebulliometric method (Recirculating still)

Row | vapor or sublimation pressure (354.25 K) [kPa] | vapor or sublimation pressure (337.85 K) [kPa] | SMILES
1 | 101.32 ± 1 | – | CC#N [acetonitrile]
2 | – | 101.32 ± 1 | CO [methanol]
